Experimental data reported in patent US20230233569A1 (Revolution Medicines, Inc., priority 2020, published 2023).
Read-outs that look alike come from different tables or passages of the source.

Tests used:
Experiment in all cases: Ras-Raf disruption / FRET / MOA assay (BRAF RBD)
Type in all cases: biochemical
KRAS G12S = KRAS G12S (Homo sapiens, UniProt P01116+P62937, G12S); conditions: with Cyclophilin A
Description: (§1) Disruption of […] Ras-binding Domain (BRAF^RBD) Interaction with K-Ras by Compounds of the Invention (also Called a FRET Assay or an MOA Assay)
(§2) Note—The following protocol describes a procedure for monitoring disruption of K-Ras G12C (GMP-PNP) binding to BRAF^RBD by a compound of the invention. This protocol may also be executed substituting other Ras proteins or nucleotides, such as K-Ras G12D and K-Ras G13D.
(§3) The purpose of this biochemical assay was to measure the ability of test compounds to facilitate ternary complex formation between a nucleotide-loaded K-Ras isoform and Cyclophilin A; the resulting ternary complex disrupts binding to a BRAF^RBD construct, inhibiting K-Ras signaling through a RAF effector. Data is reported as IC50 values.
(§4) In assay buffer containing 25 mM HEPES pH 7.3, 0.002% Tween20, 0.1% BSA, 100 mM NaCl and 5 mM MgCl2, tagless Cyclophilin A, His6-K-Ras-GMPPNP, and GST-BRAF^RBD were combined in a 384-well assay plate at final concentrations of 25 μM, 12.5 nM, and 50 nM, respectively. Compound was present in plate wells as a 10-point 3-fold dilution series starting at a final concentration of 30 μM. After incubation at 25° C. for 3 hours, a mixture of anti-His Eu-W1024 and anti-GST allophycocyanin was then added to assay sample wells at final concentrations of 10 nM and 50 nM, respectively, and the reaction incubated for an additional 1.5 hours. […] Compounds that facilitate disruption of a K-Ras:RAF complex were identified as those eliciting a decrease in the TR-FRET ratio relative to DMSO control wells.

KRAS G13D = KRAS G13D (Homo sapiens, UniProt P01116+P62937, G13D); conditions: with Cyclophilin A
Description: as §1, §2, §3, §4

KRAS G12V = KRAS G12V (Homo sapiens, UniProt P01116+P62937, G12V); conditions: with Cyclophilin A
Description: as §1, §2, §3, §4

KRAS WT = KRAS WT (Homo sapiens, UniProt P01116+P62937); conditions: with Cyclophilin A
Description: as §1, §2, §3, §4

KRAS G12D = KRAS G12D (Homo sapiens, UniProt P01116+P62937, G12D); conditions: with Cyclophilin A
Description: as §1, §2, §3, §4

NRAS G12C = NRAS G12C (Homo sapiens, UniProt P01111+P62937, G12C)
Description: as §1, §2, §3, §4

KRAS G13C = KRAS G13C (Homo sapiens, UniProt P01116+P62937, G13C); conditions: with Cyclophilin A
Description: as §1, §2, §3, §4

KRAS G12C = KRAS G12C (Homo sapiens, UniProt P01116+P62937, G12C); conditions: with Cyclophilin A
Description: as §1, §2, §3, §4
as §3, with “is” for “was”, “Ras” for “K-Ras”, “cyclophilin” for “Cyclophilin”, “effector.” for “effector. Data is reported as IC50 values.”
In assay buffer containing 25 mM HEPES pH 7.3, 0.002% Tween20, 0.1% BSA, 100 mM NaCl and 5 mM MgCl2, tagless Cyclophilin A, His6-K-Ras-GMPPNP (or other Ras variant), and GST-BRAF^RBD are combined in a 384-well assay plate at final concentrations of 25 μM, 12.5 nM and 50 nM, respectively. Compound is present in plate wells as a 10-point 3-fold dilution series starting at a final concentration of 30 μM. After incubation at 25° C. for 3 hours, a mixture of Anti-His Eu-W1024 and anti-GST allophycocyanin is then added to assay sample wells at final concentrations of 10 nM and 50 nM, respectively, and the reaction incubated for an additional 1.5 hours. […] Compounds that facilitate disruption of a Ras:RAF complex are identified as those eliciting a decrease in the TR-FRET ratio relative to DMSO control wells.

[1] = Ras-Raf disruption, read-out: KRAS G12S FRET data IC50
[2] = Ras-Raf disruption, read-out: KRAS G13D FRET data IC50
[3] = Ras-Raf disruption, read-out: KRAS G12V FRET data IC50
[4] = Ras-Raf disruption, read-out: KRAS WT FRET data IC50
[5] = Ras-Raf disruption, read-out: KRAS G12D FRET data IC50
[6] = NRAS G12C, read-out: NRAS G12C FRET data IC50
[7] = Ras-Raf disruption, read-out: KRAS G13C FRET data IC50
[8] = Ras-Raf disruption, read-out: KRAS G12C FRET data IC50

Sequence of KRAS WT (P01116 1-169 isoform P01116-2 limits assumed): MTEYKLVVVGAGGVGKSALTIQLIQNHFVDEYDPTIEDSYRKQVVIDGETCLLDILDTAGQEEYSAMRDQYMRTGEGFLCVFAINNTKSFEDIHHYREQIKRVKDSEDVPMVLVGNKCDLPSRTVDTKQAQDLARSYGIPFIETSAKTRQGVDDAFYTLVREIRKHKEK
Sequence of KRAS WT (P62937 whole entry): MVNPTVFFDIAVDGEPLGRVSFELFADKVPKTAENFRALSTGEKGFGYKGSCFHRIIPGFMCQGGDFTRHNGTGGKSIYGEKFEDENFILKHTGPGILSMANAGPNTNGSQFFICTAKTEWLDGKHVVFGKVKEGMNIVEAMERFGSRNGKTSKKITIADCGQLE
Sequence of KRAS G12V (P01116 1-169 isoform P01116-2 G12V limits assumed): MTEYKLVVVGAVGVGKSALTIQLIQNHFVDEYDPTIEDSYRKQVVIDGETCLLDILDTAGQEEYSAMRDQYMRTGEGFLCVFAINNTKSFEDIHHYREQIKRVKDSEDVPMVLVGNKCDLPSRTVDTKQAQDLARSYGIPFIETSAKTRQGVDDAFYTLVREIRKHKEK
Sequence of KRAS G12V (P62937 whole entry): as the sequence (P62937 whole entry) above
Sequence of NRAS G12C (P01111 whole entry G12C): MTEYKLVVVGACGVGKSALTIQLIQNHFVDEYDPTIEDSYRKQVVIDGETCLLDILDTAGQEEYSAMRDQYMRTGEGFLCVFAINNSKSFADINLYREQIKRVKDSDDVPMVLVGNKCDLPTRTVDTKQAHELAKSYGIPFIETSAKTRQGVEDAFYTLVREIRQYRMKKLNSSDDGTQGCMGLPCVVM
Sequence of NRAS G12C (P62937 whole entry): as the sequence (P62937 whole entry) above
Sequence of KRAS G12C (P01116 1-169 isoform P01116-2 G12C limits assumed): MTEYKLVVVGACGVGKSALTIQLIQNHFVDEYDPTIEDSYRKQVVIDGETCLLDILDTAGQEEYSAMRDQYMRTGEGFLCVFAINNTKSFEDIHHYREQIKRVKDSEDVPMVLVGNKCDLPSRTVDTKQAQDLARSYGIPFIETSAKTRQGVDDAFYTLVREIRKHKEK
Sequence of KRAS G12C (P62937 whole entry): as the sequence (P62937 whole entry) above
Sequence of KRAS G12D (P01116 1-169 isoform P01116-2 G12D limits assumed): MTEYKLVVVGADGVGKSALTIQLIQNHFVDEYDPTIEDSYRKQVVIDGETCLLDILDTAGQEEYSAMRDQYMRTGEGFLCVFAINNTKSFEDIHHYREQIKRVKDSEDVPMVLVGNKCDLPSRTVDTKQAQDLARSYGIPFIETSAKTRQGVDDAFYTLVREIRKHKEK
Sequence of KRAS G12D (P62937 whole entry): as the sequence (P62937 whole entry) above
Sequence of KRAS G13D (P01116 1-169 isoform P01116-2 G13D limits assumed): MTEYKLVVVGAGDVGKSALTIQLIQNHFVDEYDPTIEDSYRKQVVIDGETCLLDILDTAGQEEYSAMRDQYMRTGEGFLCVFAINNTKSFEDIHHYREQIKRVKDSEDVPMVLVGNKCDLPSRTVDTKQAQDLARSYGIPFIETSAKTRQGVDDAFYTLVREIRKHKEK
Sequence of KRAS G13D (P62937 whole entry): as the sequence (P62937 whole entry) above
Sequence of KRAS G13C (P01116 1-169 isoform P01116-2 G13C limits assumed): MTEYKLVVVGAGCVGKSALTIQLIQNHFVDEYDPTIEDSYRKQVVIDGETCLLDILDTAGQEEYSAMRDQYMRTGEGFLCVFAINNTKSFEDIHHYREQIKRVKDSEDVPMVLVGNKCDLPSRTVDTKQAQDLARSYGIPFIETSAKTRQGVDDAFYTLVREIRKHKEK
Sequence of KRAS G13C (P62937 whole entry): as the sequence (P62937 whole entry) above
Sequence of KRAS G12S (P01116 1-169 isoform P01116-2 G12S limits assumed): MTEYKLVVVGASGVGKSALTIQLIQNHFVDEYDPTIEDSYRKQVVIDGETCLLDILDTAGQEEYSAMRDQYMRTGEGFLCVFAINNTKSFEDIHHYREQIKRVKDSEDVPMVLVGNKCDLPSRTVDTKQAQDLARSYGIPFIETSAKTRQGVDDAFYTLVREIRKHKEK
Sequence of KRAS G12S (P62937 whole entry, the tested form may be a part): as the sequence (P62937 whole entry) above

| SMILES | IC50 (KRAS G12S; [1]) | IC50 (KRAS G13D; [2]) | IC50 (KRAS G12V; [3]) | IC50 (KRAS WT; [4]) | IC50 (KRAS G12D; [5]) | IC50 (NRAS G12C; [6]) | IC50 (KRAS G13C; [7]) | IC50 (KRAS G12C; [8]) | IC50 (KRAS G12S; KRAS G12S FRET data IC50, Ras-Raf disruption) | IC50 (KRAS G13D; KRAS G13D FRET data IC50, Ras-Raf disruption) | IC50 (KRAS G12V; KRAS G12V FRET data IC50, Ras-Raf disruption) | IC50 (KRAS WT; KRAS WT FRET data IC50, Ras-Raf disruption) | IC50 (KRAS G12D; KRAS G12D FRET data IC50, Ras-Raf disruption) | IC50 (NRAS G12C; NRAS G12C FRET data IC50, NRAS G12C) | IC50 (KRAS G13C; KRAS G13C FRET data IC50, Ras-Raf disruption) | IC50 (KRAS G12C; KRAS G12C FRET data IC50, Ras-Raf disruption) |
| --- | --- | --- | --- | --- | --- | --- | --- | --- | --- | --- | --- | --- | --- | --- | --- | --- |
| CCn1c(-c2cccnc2[C@H](C)OC)c2c3cc(ccc31)-c1cc(O)cc(c1)C[C@H](NC(=O)[C@H](C(C)C)N1CC[C@@]3(CCN(C[C@@H]4CN4)C3)C1=O)C(=O)N1CCC[C@H](N1)C(=O)OCC(C)(C)C2 [Example 138] | 100 to 1000 nM | 10 to 100 nM | 1000 to 10000 nM | 10 to 100 nM | 100 to 1000 nM | < 10 nM | 10 to 100 nM | 10 to 100 nM | – | – | – | – | – | – | – | – |
| CCn1c(-c2cccnc2[C@H](C)OC)c2c3cc(ccc31)-c1cc(O)cc(c1)C[C@H](NC(=O)[C@H](C(C)C)N(C)C(=O)[C@H]1CCN1C(=O)[C@@H]1CN1)C(=O)N1CCC[C@H](N1)C(=O)OCC(C)(C)C2 [Example 157] | – | – | – | – | – | – | – | – | 10 to 100 nM | 10 to 100 nM | 10 to 100 nM | 10 to 100 nM | 100 to 1000 nM | 10 to 100 nM | 10 to 100 nM | 10 to 100 nM |
| CCn1c(-c2cccnc2[C@H](C)OC)c2c3cc(ccc31)-c1cc(O)cc(c1)C[C@H](NC(=O)[C@H](C(C)C)N(C)C(=O)[C@H]1CCN(C(=O)[C@@H]3N[C@@H]3C3CC3)C1)C(=O)N1CCC[C@H](N1)C(=O)OCC(C)(C)C2 (atropisomer, axis not shown) [Example 198] | 10 to 100 nM | 10 to 100 nM | 100 to 1000 nM | 10 to 100 nM | 10 to 100 nM | < 10 nM | 10 to 100 nM | < 10 nM | – | – | – | – | – | – | – | – |
| CCn1c(-c2cnccc2COC)c2c3cc(ccc31)-c1cccc(c1)C[C@H](NC(=O)[C@H](C(C)C)N(C)C(=O)CCN=C=NCc1c(OC)cccc1OC)C(=O)N1CCC[C@H](N1)C(=O)OCC(C)(C)C2 [62 A and B] | 1000 to 10000 nM | 1000 to 10000 nM | > 10000 nM | 1000 to 10000 nM | 1000 to 10000 nM | 1000 to 10000 nM | 1000 to 10000 nM | 1000 to 10000 nM | – | – | – | – | – | – | – | – |
| CCn1c(-c2cccnc2[C@H](C)OC)c2c3cc(ccc31)-c1cc(O)cc(c1)C[C@H](NC(=O)[C@H](C(C)C)N(C)C(=O)C1CN(S(=O)(=O)[C@@H]3CN3C)C1)C(=O)N1CCC[C@H](N1)C(=O)OCC(C)(C)C2 (single isomer, unassigned) [Example 118] | 100 to 1000 nM | 100 to 1000 nM | 100 to 1000 nM | 100 to 1000 nM | 1000 to 10000 nM | 100 to 1000 nM | 10 to 100 nM | 100 to 1000 nM | – | – | – | – | – | – | – | – |
| CCn1c(-c2cccnc2[C@H](C)OC)c2c3cc(ccc31)-c1cc(O)cc(c1)C[C@H](NC(=O)[C@H](C(C)C)N(C)C(=O)C1CCN(C(=O)[C@H]3CN3)CC1)C(=O)N1CCC[C@H](N1)C(=O)OCC(C)(C)C2 [Example 86] | 10 to 100 nM | 10 to 100 nM | 100 to 1000 nM | 10 to 100 nM | 100 to 1000 nM | < 10 nM | 10 to 100 nM | 10 to 100 nM | – | – | – | – | – | – | – | – |
| CCn1c(-c2cccnc2[C@H](C)OC)c2c3cc(ccc31)-c1cc(O)cc(c1)C[C@H](NC(=O)[C@H](C(C)C)N(C)C(=O)C1CCN(C(=O)[C@@H]3CN3)CC1)C(=O)N1CCC[C@H](N1)C(=O)OCC(C)(C)C2 [Example 89] | 10 to 100 nM | 10 to 100 nM | 100 to 1000 nM | 10 to 100 nM | 100 to 1000 nM | 10 to 100 nM | < 10 nM | 10 to 100 nM | – | – | – | – | – | – | – | – |
